Experimental data published in US9504676B2, “Molecules inhibiting a metabolic pathway involving the Syk protein tyrosine kinase and method for identifying said molecules” (CENTRE NATIONAL DE LA RECHERCHE SCIENTIFIQUE, priority 2008, dated 2016).
Like-named read-outs stand apart in the source and are kept apart here.

What was measured:
mast cells = assay: Early and delayed mast cell responses induced by FcεRI aggregation; format: cell-based
Method: Binding of Btk and Vav with SLP-76 is critical for regulating PLC-γ activity on the membrane, calcium mobilisation and granule exocytosis^27, 28.
(§1) • 1) Chemical products and antibodies. A chemical bank of 3000 molecules (a varied subset) was acquired from ChemBridge, Inc. (San Diego, Calif.). Stocks of solutions of small molecules were prepared at a rate of 10 mM in DMSO (dimethylsulphoxide), except for C-13 (methyl 2-{5-[(3-benzyl-4-oxo-2-thioxo-1,3-thiazolidin-5-ylidene)methyl]-2-furyl}benzoate, ChemBridge ID No. 6197026) prepared in DMF (dimethylformamide). Unless specified otherwise, all the reagents were supplied by Sigma. Dinitrophenyl (DNP) hapten was acquired from Calbiochem. […] The binding of G4G11 with Syk was assessed by adding the 9E10 monoclonal antibody conjugated with HRP detecting the amino acid sequence EQKLISEEDLN of human c-myc protein located at the C-terminal end of the scFv fragment. To generate Syk mutants, targeted mutagenesis was used on GST:Syk 6-242 protein and the binding of G4G11 with the mutants was assessed in the presence of 5 μM of C-13. • 3) Cells, culture conditions and functional tests. […] The level of β-hexosaminidase released was measured 10 min later and the TNF-α titration was performed by means of a cytotoxicity test on L929 cells as described previously^10, 3 hours after stimulation. […]

Akt = assay: Phosphorylation of Akt (PI3K activity marker, Fyn-dependent cascade); format: cell-based; conditions: RBL-2H3 cells and BMMCs
Method: In mast cells, the signalling cascade Fyn/Gab2/PI3K gives rise to the activation of PI3K and the generation of PI-3,4,5-P3 recruiting a number of proteins containing a pleckstrin homology domain (PH), including Btk and PLC-γ on the plasma membrane^19.
as §1, with “Sigma.” for “Sigma. Dinitrophenyl (DNP) hapten was acquired from Calbiochem.”

COC(=O)c1ccccc1-c1ccc(/C=C2/SC(=S)N(Cc3ccccc3)C2=O)o1 [Molecule C-13, methyl 2-{5-[(3-benzyl-4-oxo-2-thioxo-1,3-thiazolidin-5-ylidene)methyl]-2-furyl}benzoate]
IC50 (mast cells; read-out: estimated IC50, delayed mast cell response (TNF-α secretion)): ~2000 nM | IC50 (mast cells; read-out: estimated IC50, early mast cell response (β-hexosaminidase release)): ~2000 nM | Fyn-dependent cascade (phosphorylation of Akt) (Akt): did not affect
